Laboratory results as given in US11434242B2, “Dopamine-b-hydroxylase inhibitors” (BIAL-PORTELA & Cª, S.A., priority 2017, dated 2022).

Legend:
DβH = target: T1, DβH (Homo sapiens, UniProt P09172); assay: DβH inhibition assay in SK-N-SH cellular homogenates (tyramine to octopamine); assay type: biochemical; details: SK-N-SH cell homogenate, inhibitor 1 μM
T1 construct: cellular homogenate (75 μg total protein); host or cells: SK-N-SH cells (homogenate)
T1 sequence (P09172 1-617): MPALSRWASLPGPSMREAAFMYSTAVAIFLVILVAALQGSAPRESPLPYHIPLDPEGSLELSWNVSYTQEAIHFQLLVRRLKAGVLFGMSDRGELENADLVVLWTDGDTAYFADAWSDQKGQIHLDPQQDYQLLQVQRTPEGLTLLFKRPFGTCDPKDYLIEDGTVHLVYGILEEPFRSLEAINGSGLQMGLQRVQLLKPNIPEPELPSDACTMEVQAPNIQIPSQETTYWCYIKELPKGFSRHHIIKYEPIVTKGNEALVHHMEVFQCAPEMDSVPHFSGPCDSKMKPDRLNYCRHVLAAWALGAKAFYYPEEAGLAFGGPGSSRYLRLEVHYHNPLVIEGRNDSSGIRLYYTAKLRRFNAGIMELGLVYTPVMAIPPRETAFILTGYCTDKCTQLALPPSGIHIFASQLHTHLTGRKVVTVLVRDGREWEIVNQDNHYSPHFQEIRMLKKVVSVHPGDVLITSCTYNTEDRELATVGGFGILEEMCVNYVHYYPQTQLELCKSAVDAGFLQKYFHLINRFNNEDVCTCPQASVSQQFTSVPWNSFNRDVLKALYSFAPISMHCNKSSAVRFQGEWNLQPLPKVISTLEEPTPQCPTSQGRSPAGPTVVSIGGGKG

[1] = target: T2, Dopamine beta hydroxylase (Homo sapiens, UniProt P09172); assay: Dopamine beta hydroxylase activity in human plasma; assay type: biochemical; details: for Plasma (0.01 μM), activity in % of control: inhibitor 0.01 μM; for Plasma (0.1 μM), activity in % of control: inhibitor 0.1 μM
T2 construct: 125 μl of plasma; tissue Instituto Português do Sangue Transplantação; host or cells: human plasma from healthy donors
T2 sequence (P09172 40-617 limits assumed): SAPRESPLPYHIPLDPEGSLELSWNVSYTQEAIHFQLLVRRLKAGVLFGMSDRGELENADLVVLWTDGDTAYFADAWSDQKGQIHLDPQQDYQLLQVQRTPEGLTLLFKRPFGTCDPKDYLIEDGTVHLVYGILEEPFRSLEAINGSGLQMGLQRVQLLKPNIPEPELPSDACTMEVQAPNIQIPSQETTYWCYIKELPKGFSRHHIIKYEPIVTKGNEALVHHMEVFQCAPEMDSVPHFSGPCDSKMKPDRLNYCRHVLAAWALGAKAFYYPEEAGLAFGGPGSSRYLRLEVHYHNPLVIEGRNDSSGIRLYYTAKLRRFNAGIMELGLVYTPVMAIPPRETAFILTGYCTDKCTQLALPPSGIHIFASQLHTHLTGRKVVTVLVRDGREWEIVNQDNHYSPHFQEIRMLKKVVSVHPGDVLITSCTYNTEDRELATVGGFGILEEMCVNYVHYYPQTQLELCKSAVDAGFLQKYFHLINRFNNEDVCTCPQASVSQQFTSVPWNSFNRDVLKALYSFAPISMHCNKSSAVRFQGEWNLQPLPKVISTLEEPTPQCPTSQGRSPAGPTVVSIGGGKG
Outline: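 Healthy-donor human plasma pre-incubated 10 min at 37° C with compound at final 10, 100 or 1000 nM in pH 5.0 acetate buffer with ascorbate, fumarate, pargyline, N-ethylmaleimide, catalase and copper sulfate. Tyramine substrate then added for 45 min; octopamine formed was isolated by SCX cartridge, periodate-converted and read at 330 nm; activity given as % control.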

SKNSH (1 μM), activity in % of control (DβH)	Plasma (0.01 μM), activity in % of control [1]	Plasma (0.1 μM), activity in % of control [1]	SMILES
49.3 % of control			CCOC(=O)Cc1[nH]c(=S)n2c1C[C@@H](c1cc(F)ccc1F)C2 [Example 2, (S)-ethyl 2-(6-(2,5-difluorophenyl)-3-thioxo-3,5,6,7-tetrahydro-2H-pyrrolo[1,2-c]imidazol-1-yl)acetate]
35.8 % of control			O=C(O)Cc1[nH]c(=S)n2c1C[C@@H](c1cc(F)ccc1F)C2 [Example 3, (S)-2-(6-(2,5-difluorophenyl)-3-thioxo-3,5,6,7-tetrahydro-2H-pyrrolo[1,2-c]imidazol-1-yl)acetic Acid]
	50.2 % of control	10.3 % of control	[2H]C([2H])([2H])n1c(CC(=O)O)c2n(c1=S)C[C@@]1(c3cc(Br)ccc3F)C[C@@H]21 [Example 462, 2-((5aS,6aR)-5a-(5-bromo-2-fluorophenyl)-2-(methyl-d)-3-thioxo-2,3,5,5a,6,6a-hexahydrocyclopropa[3,4]pyrrolo[1,2-c]imidazol-1-yl)acetic Acid]
	29.1 % of control	3.7 % of control	[2H]C([2H])([2H])n1c(CC(=O)NC2CCOCC2)c2n(c1=S)C[C@@]1(c3cc(Br)ccc3F)C[C@@H]21 [Example 463, 2-((5aS,6aR)-5a-(5-bromo-2-fluorophenyl)-2-(methyl-d)-3-thioxo-2,3,5,5a,6,6a-hexahydrocyclopropa[3,4]pyrrolo[1,2-c]imidazol-1-yl)-N-(tetrahydro-2H-pyran-4-yl)acetamide]
	33.4 % of control	4.5 % of control	[2H]C([2H])([2H])n1c(CC(=O)N[C@@H]2CCCOC2)c2n(c1=S)C[C@@]1(c3cc(Br)ccc3F)C[C@@H]21 [Example 464, 2-((5aS,6aR)-5a-(5-bromo-2-fluorophenyl)-2-(methyl-d)-3-thioxo-2,3,5,5a,6,6a-hexahydrocyclopropa[3,4]pyrrolo[1,2-c]imidazol-1-yl)-N—((R)-tetrahydro-2H-pyran-3-yl)acetamide]
	62.3 % of control	9.0 % of control	[2H]C([2H])([2H])n1c(CC(=O)N[C@@H]2CCOC2)c2n(c1=S)C[C@@]1(c3cc(Br)ccc3F)C[C@@H]21 [Example 465, 2-((5aS,6aR)-5a-(5-bromo-2-fluorophenyl)-2-(methyl-d)-3-thioxo-2,3,5,5a,6,6a-hexahydrocyclopropa[3,4]pyrrolo[1,2-c]imidazol-1-yl)-N—((R)-tetrahydrofuran-3-yl)acetamide]
	49.6 % of control	6.5 % of control	CN(C(=O)Cc1c2n(c(=S)n1C)C[C@@]1(c3cc(Br)ccc3F)C[C@@H]21)[C@@H]1CCOC1 [Example 466, 2-((5aS,6aR)-5a-(5-bromo-2-fluorophenyl)-2-methyl-3-thioxo-2,3,5,5a,6,6a-hexahydrocyclopropa[3,4]pyrrolo[1,2-c]imidazol-1-yl)-N-methyl-N—((R)-tetrahydrofuran-3-yl)acetamide]
	27.9 % of control	4.0 % of control	CN(C(=O)Cc1c2n(c(=S)n1C)C[C@@]1(c3c(F)ccc(Cl)c3F)C[C@@H]21)[C@@H]1CCOC1 [Example 467, 2-((5aS,6aR)-5a-(3-chloro-2,6-difluorophenyl)-2-methyl-3-thioxo-2,3,5,5a,6,6a-hexahydrocyclopropa[3,4]pyrrolo[1,2-c]imidazol-1-yl)-N-methyl-N—((R)-tetrahydrofuran-3-yl)acetamide]
	65.8 % of control	13.1 % of control	CN(C(=O)Cc1c2n(c(=S)n1C)C[C@@]1(c3cc(Cl)ccc3F)C[C@@H]21)[C@@H]1CCOC1 [Example 468, 2-((5aS,6aR)-5a-(5-chloro-2-fluorophenyl)-2-methyl-3-thioxo-2,3,5,5a,6,6a-hexahydrocyclopropa[3,4]pyrrolo[1,2-c]imidazol-1-yl)-N-methyl-N—((R)-tetrahydrofuran-3-yl)acetamide]
	33.7 % of control	1.5 % of control	[2H]C([2H])([2H])n1c(CC(=O)NC2CCOCC2)c2n(c1=S)C[C@H](c1c(F)ccc(Cl)c1F)C2 [Example 469, (S)-2-(6-(3-chloro-2,6-difluorophenyl)-2-(methyl-d)-3-thioxo-2,5,6,7-tetrahydro-3H-pyrrolo[1,2-c]imidazol-1-yl)-N-(tetrahydro-2H-pyran-4-yl)acetamide]
	112.0 % of control	79.4 % of control	Fc1ccc(F)c([C@H]2Cc3c(CCN[C@@H]4CCOC4)[nH]c(=S)n3C2)c1F [Example 470]
	63.3 % of control	14.2 % of control	CC(C)NCCCc1[nH]c(=S)n2c1C[C@H](c1c(F)ccc(F)c1F)C2 [Example 472, (R)-1-(3-(isopropylamino)propyl)-6-(2,3,6-trifluorophenyl)-2,5,6,7-tetrahydro-3H-pyrrolo[1,2-c]imidazole-3-thione hydrofluoride]
	98.9 % of control	46.2 % of control	Cl.Fc1ccc(F)c([C@H]2Cc3c(CCNCC4CCOCC4)[nH]c(=S)n3C2)c1F [Example 473, (R)-1-(2-(((tetrahydro-2H-pyran-4-yl)methyl)amino)ethyl)-6-(2,3,6-trifluorophenyl)-2,5,6,7-tetrahydro-3H-pyrrolo[1,2-c]imidazole-3-thione hydrochloride]
	92.5 % of control	79.3 % of control	Cn1c(CCN2CCCC2)c2n(c1=S)C[C@@H](c1c(F)ccc(F)c1F)C2 [Example 474, (R)-2-methyl-1-(2-(pyrrolidin-1-yl)ethyl)-6-(2,3,6-trifluorophenyl)-2,5,6,7-tetrahydro-3H-pyrrolo[1,2-c]imidazole-3-thione hydrofluoride]
	85.0 % of control	67.0 % of control	Cl.Fc1ccc(F)c([C@H]2Cc3c(CCNC[C@@H]4CCCO4)[nH]c(=S)n3C2)c1F [Example 475, (R)-1-(2-((((S)-tetrahydrofuran-2-yl)methyl)amino)ethyl)-6-(2,3,6-trifluorophenyl)-2,5,6,7-tetrahydro-3H-pyrrolo[1,2-c]imidazole-3-thione hydrochloride]
	94.3 % of control	64.8 % of control	Cn1c(CCNC(C)(C)C)c2n(c1=S)C[C@@H](c1c(F)ccc(F)c1F)C2 [Example 476, (R)-1-(2-(tert-butylamino)ethyl)-2-methyl-6-(2,3,6-trifluorophenyl)-2,5,6,7-tetrahydro-3H-pyrrolo[1,2-c]imidazole-3-thione Hydrofluoride]
	84.6 % of control	59.4 % of control	Cl.Cn1c(CCNCC2CCOCC2)c2n(c1=S)C[C@@H](c1c(F)ccc(F)c1F)C2 [Example 477, (R)-2-methyl-1-(2-(((tetrahydro-2H-pyran-4-yl)methyl)amino)ethyl)-6-(2,3,6-trifluorophenyl)-2,5,6,7-tetrahydro-3H-pyrrolo[1,2-c]imidazole-3-thione hydrochloride]
	46.7 % of control	5.1 % of control	Fc1ccc(F)c([C@H]2Cc3c(CCCN4CCCC4)[nH]c(=S)n3C2)c1F [Example 478, (R)-1-(3-(pyrrolidin-1-yl)propyl)-6-(2,3,6-trifluorophenyl)-2,5,6,7-tetrahydro-3H-pyrrolo[1,2-c]imidazole-3-thione hydrofluoride]

SMILES	SKNSH (1 μM), activity in % of control (DβH)	Plasma (0.01 μM), activity in % of control [1]	Plasma (0.1 μM), activity in % of control [1]
CCOC(=O)Cc1[nH]c(=S)n2c1C[C@@H](c1cc(F)cc(F)c1)C2 [Example 1, (S)-ethyl 2-(6-(3,5-difluorophenyl)-3-thioxo-3,5,6,7-tetrahydro-2H-pyrrolo[1,2-c]imidazol-1-yl)acetate]	37.9 % of control		
